Read-outs that look alike come from different tables or passages of the source.
How the values were obtained:
Conditions in all cases: in vivo
[1] = test system: tomato plants (Lycopersicon esculentum var. Celebrity Hybrid, NK); experiment: IA mitigation of insecticide phytotoxicity: KRYOCIDE with or without sucrose sprayed on potted tomato plants, vigor and appearance rating
Experimental: In general, tomato plants were contacted with three different treatment formulations: (1) the sodium aluminofluoride insecticide KRYOCIDE with water and surfactant, (2) an insecticide phytotoxicity reducing formulation according to the subject invention, i.e., KRYOCIDE/water/sucrose/surfactant, and (3) sucrose/water. An untreated control was also evaluated.
1) Nine week old potted tomato plants (Lycopersicon esculentum var. Celebrity Hybrid, NK) 2) Sodium Aluminofluoride 96% a.i. (KRYOCIDE) made up in a concentration equivalent to 15 lbs per 100 gallons water+Organosilicone Surfactant (Silwet L-77) at 3 oz per 100 gallons 3) KRYOCIDE at 15 lbs per 100 gallons spray mix+SILWET L-77 at 3 oz per 100 gallons spray mix+Sucrose at 25 lbs per 100 gallons spray mix 4) Sucrose at 25 lbs per 100 gallons spray mix+SILWET L-77 at 3 oz per 100 gallons

[2] = test system: Mung Bean plants (Phaseolus aureus); experiment: IB mitigation of bactericide-fungicide phytotoxicity: KOCIDE with or without sucrose sprayed on potted mung bean plants, leaf russeting, vigor and appearance rating
Experimental: In general, mung bean plants were contacted with three different treatment formulations: (1) the copper hydroxide bactericide-fungicide KOCIDE with water and surfactant, (2) a bactericide-fungicide phytotoxicity reducing formulation according to the subject invention, i.e., KOCIDE/water/sucrose/surfactant, and (3) sucrose/water. An untreated control was also evaluated.
1) Three week old potted Mung Bean plants (Phaseolus aureus) 2) Copper Hydroxide 20% a.i. (KOCIDE) made up in a concentration equivalent to 10 lbs per 100 gallons spray mix+Organosilicone Surfactant (SILWET L-77) at 3 oz per 100 gallons 3) KOCIDE at 10 lbs per 100 gallons spray mix+Sucrose at 25 lbs per 100 gallons+SILWET L-77 at 3 oz per 100 gallons 4) Sucrose at 25 lbs per 100 gallons+SILWET L-77 at 3 oz per 100 gallons

[3] = test system: tomato plants (Lycopersicon esculentum var. Celebrity Hybrid, NK)
Experimental: In general, tomato plants were contacted with three different treatment formulations: (1) the clorothalonil fungicide BRAVO WEATHER STIK with water and surfactant, (2) a fungicide phytotoxicity reducing formulation according to the subject invention, i.e., BRAVO WEATHER STIK/water/sucrose/surfactant, and (3) sucrose/water. An untreated control was also evaluated.
1) Seven week old potted tomato plants (Lycopersicon esculentum var. Celebrity Hybrid, NK) 2) Clorothalonil 47% a.i. (BRAVO WEATHER STIK) made up in a concentration equivalent to 2 pints per 100 gallons water+Organosilicone Surfactant (SILWET L-77) at 3 oz per 100 gallons 3) BRAVO WEATHER STIK at 2 pints per 100 gallons spray mix+SILWET L-77 at 3 oz per 100 gallons+Sucrose at 25 lbs per 100 gallons 4) Sucrose at 25 lbs per 100 gallons+SILWET L-77 at 3 oz per 100 gallons

[4] = test system: tomato plants (Lycopersicon esculentum var. Celebrity Hybrid, NK); experiment: ID mitigation of fungicide phytotoxicity: ORBIT with or without sucrose sprayed on potted tomato plants, vigor, leaf distortion and appearance rating
Experimental: In general, tomato plants were contacted with three different treatment formulations: (1) the propiconazole fungicide ORBIT with water and surfactant, (2) a fungicide phytotoxicity reducing formulation according to the subject invention, i.e., ORBIT/water/sucrose/surfactant, and (3) sucrose/water. An untreated control was also evaluated.
1) Nine week old potted tomato plants (Lycopersicon esculentum var. Celebrity Hybrid, NK) 2) Propiconazole 41.8% a.i. (ORBIT) made up in a concentration equivalent to 12 oz per 100 gallons water+Organosilicone Surfactant (SILWET L-77) at 3 oz per 100 gal 3) ORBIT at 12 oz per 100 gallons spray mix+SILWET L-77 at 3 oz per 100 gallons+Sucrose at 25 lbs per 100 gallons 4) Sucrose at 25 lbs per 100 gallons+SILWET L-77 at 3 oz per 100 gallons

| Compound | overall vigor and appearance, Mean/Statistical Rank [1] | overall vigor and appearance, Replication 1 [1] | overall vigor and appearance, Replication 2 [1] | overall vigor and appearance, Replication 3 [1] | overall vigor and appearance, Replication 4 [1] | russeting of leaves and overall vigor and appearance, Mean/Statistical Rank [2] | russeting of leaves and overall vigor and appearance, Replication 1 [2] | russeting of leaves and overall vigor and appearance, Replication 2 [2] | russeting of leaves and overall vigor and appearance, Replication 3 [2] | russeting of leaves and overall vigor and appearance, Replication 4 [2] | overall vigor and appearance, Mean/Statistical Rank [3] | overall vigor and appearance, Replication 1 [3] | overall vigor and appearance, Replication 2 [3] | overall vigor and appearance, Replication 3 [3] | overall vigor and appearance, Replication 4 [3] | overall vigor, leaf distortion and appearance, Mean/Statistical Rank [4] | overall vigor, leaf distortion and appearance, Replication 1 [4] | overall vigor, leaf distortion and appearance, Replication 2 [4] | overall vigor, leaf distortion and appearance, Replication 3 [4] | overall vigor, leaf distortion and appearance, Replication 4 [4] |
| --- | --- | --- | --- | --- | --- | --- | --- | --- | --- | --- | --- | --- | --- | --- | --- | --- | --- | --- | --- | --- |
| OC[C@H]1O[C@@](CO)(O[C@H]2O[C@H](CO)[C@@H](O)[C@H](O)[C@H]2O)[C@@H](O)[C@@H]1O [Sucrose] | 9.75 b | 10 | 9 | 10 | 10 | 10.00 b | 10 | 10 | 10 | 10 | 10.00 b | 10 | 10 | 10 | 10 | 10.00 c | 10 | 10 | 10 | 10 |
| Clorothalonil [BRAVO WS] |  |  |  |  |  |  |  |  |  |  | 5.25 a | 5 | 5 | 6 | 5 |  |  |  |  |  |
